The source of these data is patent US7625887B2, “Receptor agonists” (Takeda Pharmaceutical Company Limited, priority 2003, dated 2009).

Holding throughout (format): cell-based
The target in experiment [1] is T1, rat TGR5 (Rattus norvegicus, UniProt Q80T02).
T1 construct: expressed in transfected cells; host or cells: CHO cells
T1 sequence (Q80T02 1-329): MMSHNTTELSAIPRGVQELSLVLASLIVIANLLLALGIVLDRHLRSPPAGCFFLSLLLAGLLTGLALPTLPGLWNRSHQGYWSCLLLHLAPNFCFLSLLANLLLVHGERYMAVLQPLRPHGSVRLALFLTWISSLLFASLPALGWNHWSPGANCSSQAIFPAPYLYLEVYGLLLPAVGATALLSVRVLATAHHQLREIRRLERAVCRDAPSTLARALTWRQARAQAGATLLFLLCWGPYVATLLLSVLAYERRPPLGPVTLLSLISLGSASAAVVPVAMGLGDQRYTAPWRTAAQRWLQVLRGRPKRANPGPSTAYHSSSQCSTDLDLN
The experiment can be described thus: cAMP production increasing activity in rat type TGR5 expressing CHO cells. The conditions noted are these: 0.5 h, read-out: cAMP producing activity (control %). As for the experimental part:
(§1) After culture, the cells were detached with 0.5 mM EDTA/PBS, washed with PBS, and suspended in Buffer 1 (HBSS+0.1% BSA, 25 mM HEPES pH 7.3, 0.5 mM IBMX) at a density of 1×10^7 cells/ml. The obtained cell suspension (460 μl), anti-cAMP acceptor beads (23 μl) of AlphaScreen cAMP assay kit (Perkin Elmer) and Buffer 1 (667 μl) were mixed and dispensed to a white 96 well plate (Costar) by 10 μl. Then, a test compound diluted with Buffer 1 was added to each well by 10 μl. At this time, one row of the plate was free of the cell suspension but added with anti-cAMP acceptor beads (9 μl) and Buffer 1 (441 μl) alone, and serial dilutions of cAMP were added instead of the test compound and used as the standard. A mixture of the cell suspension and the test compound contained in the plate was allowed to react at room temperature for 30 min. […] The plate was shaken at room temperature for 2.5 hrs and fluorescence intensity was measured by Fusion α (Parkin Elmer), and the cAMP concentration of each well was calculated using the cAMP standard on each plate.
For orientation: Changes in cAMP serve as a functional read-out for many G protein-coupled receptors.

For experiment [2], the target named is T2, human TGR5 (Homo sapiens, UniProt Q8TDU6).
T2 construct: expressed in transfected cells; host or cells: CHO cells
T2 sequence (Q8TDU6 1-330): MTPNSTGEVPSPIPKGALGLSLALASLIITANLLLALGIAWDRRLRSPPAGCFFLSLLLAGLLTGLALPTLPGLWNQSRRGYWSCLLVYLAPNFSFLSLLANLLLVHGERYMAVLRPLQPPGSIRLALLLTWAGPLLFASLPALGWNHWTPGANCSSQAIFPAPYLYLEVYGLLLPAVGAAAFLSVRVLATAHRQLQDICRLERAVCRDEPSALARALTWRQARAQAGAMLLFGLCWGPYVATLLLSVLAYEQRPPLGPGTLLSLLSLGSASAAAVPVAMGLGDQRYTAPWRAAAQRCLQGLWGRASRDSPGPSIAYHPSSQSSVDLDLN
The experiment can be described thus: cAMP production increasing activity in human TGR5 expressing CHO cells. The conditions noted are these: read-out: EC50 value (concentration necessary to make the cAMP production amount 50%).

Experiment [3] concerns guinea pig TGR5. Put plainly: cAMP production increasing activity in guinea pig TGR5 expressing CHO cells. The conditions noted are these: test compound 2 μM; 10 μM lithocholic acid = 100%; average of 3 groups. The method, then:
as §1, with “The guinea pig type TGR5 expressing CHO cells were seeded in one 150 cm^2 flask at 1×10^7 cells, and cultured overnight at 37° C., 5% CO2. After” for “After”

The target in experiment [4] is T2, human TGR5. The experiment can be described thus: cAMP production increasing activity in human TGR5 expressing CHO cells. The conditions noted are these: test compound 1 μM, 30 min; 1 μM lithocholic acid = 100%, no addition = 0%; average of 3 groups. The method, then: As the assay buffer, Hank's balanced salt solution (HBSS, Invitrogen) supplemented with 0.1% bovine serum albumin (BSA, Sigma) and 0.5 mM 3-isobutyl-1-methylxanthine (IBMX, Sigma) was used. A test compound sample (1 μM) diluted with the assay buffer was added to the cells. The cells were incubated at 37° C. for 30 min. and the supernatant was suctioned. The intracellular cAMP amount increased by the stimulation of the test compound was quantitatively determined using a HitHunter™ EFC Cyclic AMP Chemiluminescence Assay Kit (ABI) kit.

Where a name gives a salt, the structure may show the parent alone.

Regarding `CC(=O)NCc1cccc(C2OC(CC(=O)NCC3CCCCCC3)C(=O)N(CC(C)(C)C)c3ccc(Cl)cc32)c1` (stereo not drawn) [Example 17, 2-[3,5-trans-5-[3-(acetylaminomethyl)phenyl]-7-chloro-1-neopentyl-2-oxo-1,2,3,5-tetrahydro-4,1-benzoxazepin-3-yl]-N-(cycloheptylmethyl)acetamide], the activation at 2 µM in experiment [1] came to 107%. Further, the EC50 in experiment [2] was under 100 nM.

Consider `O=C(c1cc(Cl)cc(Cl)c1)N1CCOc2nccc(-c3ccccc3)c2C1` [Example 32C, 4-(3,5-dichlorobenzoyl)-6-phenyl-2,3,4,5-tetrahydropyrido[3,2-f][1,4]oxazepine], for which the “cAMP producing activity (control %)” value in experiment [3] is recorded as 89 control %.

For the compound `CC(C)(C)CN1C(=O)[C@@H](CC(=O)NCc2ccccc2F)O[C@@H](c2cccc(C3OCCO3)c2)c2cc(Cl)ccc21` (relative stereo) [Reference Example 2, 2-[3,5-trans-7-chloro-5-[3-([1,3]dioxolan-2-yl)phenyl]-1-neopentyl-2-oxo-1,2,3,5-tetrahydro-4,1-benzoxazepin-3-yl]-N-(2-fluorobenzyl)acetamide], the “cAMP production increasing activity (control %)” value in experiment [4] turned out to be 108 control %.

As for `Fc1ccc(-c2ccnc3c2CN(Cc2cc(C(F)(F)F)cc(C(F)(F)F)c2)CCCCO3)cc1` [Example 61C, 6-[3,5-bis(trifluoromethyl)benzyl]-8-(4-fluorophenyl)-2,3,4,5,6,7-hexahydropyrido[2,3-b][1,5]oxazonine], in experiment [1], the activation at 2 µM turned out to be 101%. In addition, the EC50 in experiment [2] is under 100 nM.

For `Cc1cc(C(=O)N2Cc3ccccc3N(CC(C)C)C(=O)C2CC(=O)NCc2ccccc2F)ccn1` (centres unmarked) [Example 23B, N-(2-fluorobenzyl)-2-[1-isobutyl-4-(2-methylisonicotinoyl)-2-oxo-2,3,4,5-tetrahydro-1H-1,4-benzodiazepin-3-yl]acetamide], the EC50 in experiment [2] was under 100 nM.

Regarding `CC(C)(C)CN1C(=O)C(CC(=O)NCc2ccccc2F)OC(c2cccc(Cn3ccnc3)c2)c2cc(Cl)ccc21` (stereo not drawn) [Example 60, 2-[3,5-trans-7-chloro-5-[3-(1H-imidazol-1-ylmethyl)phenyl]-1-neopentyl-2-oxo-1,2,3,5-tetrahydro-4,1-benzoxazepin-3-yl]-N-(2-fluorobenzyl)acetamide], in experiment [2], the EC50 was under 100 nM.

`CC(C)(C)CN1C(=O)[C@@H](CC(=O)NCc2ccccc2F)O[C@@H](c2cccc(CNS(C)(=O)=O)c2)c2cc(Cl)ccc21` (relative stereo) [Reference Example 4, 2-[3,5-trans-7-chloro-5-[3-(methanesulfonylaminomethyl)phenyl]-1-neopentyl-2-oxo-1,2,3,5-tetrahydro-4,1-benzoxazepin-3-yl]-N-(2-fluorobenzyl)acetamide]: the “cAMP production increasing activity (control %)” value in experiment [4] was determined as 80 control %.

As for `COC(=O)NCc1cccc(C2OC(CC(=O)NCc3ccccc3F)C(=O)N(CC(C)C)c3ccc(Cl)cc32)c1` (stereo not drawn) [Example 43, methyl [3-[3,5-trans-7-chloro-3-[2-[(2-fluorobenzyl)amino]-2-oxoethyl]-1-isobutyl-2-oxo-1,2,3,5-tetrahydro-4,1-benzoxazepin-5-yl]benzyl]carbamate], the “cAMP producing activity (control %)” value in experiment [3] is reported as 82 control %. In addition, in experiment [2], the EC50 is under 100 nM.

With `CC(C)(C)CN1C(=O)[C@@H](CC(=O)NCc2ccccc2F)O[C@@H](c2cccc(N)c2)c2cc(Cl)ccc21` (relative stereo) [Reference Example 1, 2-[3,5-trans-5-(3-aminophenyl)-7-chloro-1-neopentyl-2-oxo-1,2,3,5-tetrahydro-4,1-benzoxazepin-3-yl]-N-(2-fluorobenzyl)acetamide], the “cAMP production increasing activity (control %)” value in experiment [4] is 97 control %.

On to `CC(C)(C)CN1C(=O)[C@@H](CC(=O)NCc2ccccc2F)O[C@@H](c2cccc(CO)c2)c2cc(Cl)ccc21` (relative stereo) [Reference Example 9, 2-[3,5-trans-7-chloro-5-[3-(hydroxymethyl)phenyl]-1-neopentyl-2-oxo-1,2,3,5-tetrahydro-4,1-benzoxazepin-3-yl]-N-(2-fluorobenzyl)acetamide], for which the “cAMP production increasing activity (control %)” value in experiment [4] is reported as 128 control %.

Take `CC(C)(C)CN1C(=O)C(CC(=O)NCc2ccccc2F)N(Cc2ccncc2)Cc2ccccc21` (centres unmarked) [Example 30B, N-(2-fluorobenzyl)-2-[1-neopentyl-2-oxo-4-(pyridin-4-ylmethyl)-2,3,4,5-tetrahydro-1H-1,4-benzodiazepin-3-yl]acetamide]: the activation at 2 µM in experiment [1] amounted to 108%. For the same compound, in experiment [2], the EC50 was under 100 nM.

Regarding `O=S(=O)(c1cccc2ccccc12)N1CCOc2nccc(-c3ccccc3)c2C1` [Example 42C, 4-(1-naphthylsulfonyl)-6-phenyl-2,3,4,5-tetrahydropyrido[3,2-f][1,4]oxazepine], the “cAMP producing activity (control %)” value in experiment [3] was determined as 104 control %. In addition, the EC50 in experiment [2] was under 100 nM.

`O=S(=O)(c1cc(C(F)(F)F)cc(C(F)(F)F)c1)N1CCCOc2nccc(-c3ccc(F)cc3)c2C1` [Example 60C, 5-{[3,5-bis(trifluoromethyl)phenyl]sulfonyl}-7-(4-fluorophenyl)-3,4,5,6-tetrahydro-2H-pyrido[2,3-b][1,5]oxazocine]: the EC50 in experiment [2] was under 100 nM.

As for `FC(F)(F)c1cc(CCN2CCOc3nccc(-c4ccccc4)c3C2)cc(C(F)(F)F)c1` [Example 45C, 4-{2-[3,5-bis(trifluoromethyl)phenyl]ethyl}-6-phenyl-2,3,4,5-tetrahydropyrido[3,2-f][1,4]oxazepine hydrochloride], the EC50 in experiment [2] was under 100 nM.

`CC(C)(C)CN1C(=O)[C@@H](CC(=O)NCc2ccccc2F)O[C@@H](c2cccc(CNC(=O)C(F)(F)F)c2)c2cc(Cl)ccc21` (relative stereo) [Reference Example 5, N-[3-[3,5-trans-7-chloro-3-[2-[(2-fluorobenzyl)amino]-2-oxoethyl]-1-neopentyl-2-oxo-1,2,3,5-tetrahydro-4,1-benzoxazepin-5-yl]benzyl]-2,2,2-trifluoroacetamide]: in experiment [4], the “cAMP production increasing activity (control %)” value is 116 control %.

In the case of `COC(=O)NCc1cccc(C2OC(CC(=O)NCC3CCCCC3)C(=O)N(CC(C)(C)C)c3ccc(Cl)cc32)c1` (stereo not drawn) [Example 30, methyl [3-[3,5-trans-7-chloro-3-[2-[(cyclohexylmethyl)amino]-2-oxoethyl]-1-neopentyl-2-oxo-1,2,3,5-tetrahydro-4,1-benzoxazepin-5-yl]benzyl]carbamate], the “cAMP producing activity (control %)” value in experiment [3] is 86 control %. Besides, the activation at 2 µM in experiment [1] stood at 114%. In addition, the EC50 in experiment [2] is under 100 nM.
